Laboratory results published in ChEMBL document CHEMBL1201862, “PubChem BioAssay data set” (2004).
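Step 1: Grow cells in 96-well plates. Step 2: Expose to compound for 48 hours at 5 concentrations. Step 3: Interpolate endpoints linearly; if unreached, use highest concentration. Abbreviation: GI50, concentration required for 50% inhibition of growth.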 Active and inactive are the calls of the source. Rule as the data show it: active = GI50 up to about 1.1 µM and inactive = higher.

Experiments:
Test in all cases: inhibition of tumour cell growth, NCI panel, 48 h
BT-549 = test system: BT-549
CAKI-1 = test system: CAKI-1
CCRF-CEM = test system: CCRF-CEM
HOP-92 = test system: HOP-92
KM12 = test system: KM12
MDA-N = test system: MDA-N
NCI-H522 = test system: NCI-H522
OVCAR-3 = test system: OVCAR-3
OVCAR-5 = test system: OVCAR-5
PC-3 = test system: PC-3
RPMI-8226 = test system: RPMI-8226
SF-268 = test system: SF-268
SF-295 = test system: SF-295
SK-MEL-2 = test system: SK-MEL-2
SK-OV-3 = test system: SK-OV-3
SR = test system: SR
TK-10 = test system: TK-10
KM-20L2 = test system: KM-20L2

Compound	GI50 (BT-549)	GI50 (CAKI-1)	GI50 (CCRF-CEM)	GI50 (HOP-92)	GI50 (KM12)	GI50 (MDA-N)	GI50 (NCI-H522)	GI50 (OVCAR-3)	GI50 (OVCAR-5)	GI50 (PC-3)	GI50 (RPMI-8226)	GI50 (SF-268)	GI50 (SF-295)	GI50 (SK-MEL-2)	GI50 (SK-OV-3)	GI50 (SR)	GI50 (TK-10)	GI50 (KM-20L2)
CC(C)(C)OC/C=C1\C(=O)O[C@H]2C[C@@H](O[Si](C)(C)C(C)(C)C)C[C@@H]12	> 100 µM (inactive)	> 100 µM (inactive)	33.9 µM (inactive)	36.4 µM (inactive)	67.9 µM (inactive)	90.4 µM (inactive)	33.5 µM (inactive)	49.9 µM (inactive)	> 100 µM (inactive)	66.5 µM (inactive)	46 µM (inactive)	> 100 µM (inactive)	48.6 µM (inactive)	> 100 µM (inactive)	> 100 µM (inactive)	37.3 µM (inactive)	> 100 µM (inactive)	
CCOC(=O)c1cccc(/N=N/Nc2cccc(C(=O)OCC)c2)c1	> 100 µM (inactive)	42 µM (inactive)	> 100 µM (inactive)	22.3 µM (inactive)	> 100 µM (inactive)	5.66 µM (inactive)	23.9 µM (inactive)	26.8 µM (inactive)	78.7 µM (inactive)	34.4 µM (inactive)	> 100 µM (inactive)	27 µM (inactive)	15.6 µM (inactive)	34.2 µM (inactive)	28.7 µM (inactive)	1.09 µM (active)	27.5 µM (inactive)	
COc1cc(OC)c2nc3occc3c(OC)c2c1	> 100 µM (inactive)	77.4 µM (inactive)	> 100 µM (inactive)	> 100 µM (inactive)	> 100 µM (inactive)	> 100 µM (inactive)	> 100 µM (inactive)	> 100 µM (inactive)	> 100 µM (inactive)	> 100 µM (inactive)	27.7 µM (inactive)	> 100 µM (inactive)	62.8 µM (inactive)	> 100 µM (inactive)	97.5 µM (inactive)	55.7 µM (inactive)	> 100 µM (inactive)	
N=C(N)N/N=C(\c1ccc(F)cc1)c1ccc(C(F)(F)F)cc1	0.593 µM (active)	0.451 µM (active)	0.329 µM (active)	1.46 µM (inactive)	0.203 µM (active)	0.0748 µM (active)	0.135 µM (active)	0.33 µM (active)	0.497 µM (active)	0.357 µM (active)	0.376 µM (active)	0.593 µM (active)	0.264 µM (active)	1.24 µM (inactive)	0.817 µM (active)	0.284 µM (active)	1.66 µM (inactive)	
Sc1nnc(-c2ccccc2)n1/N=C\c1ccc(-c2ccc(Cl)cc2)o1				> 100 µM (inactive)	> 100 µM (inactive)		> 100 µM (inactive)	> 100 µM (inactive)	> 100 µM (inactive)		> 100 µM (inactive)	> 100 µM (inactive)	> 100 µM (inactive)		> 100 µM (inactive)	> 100 µM (inactive)	> 100 µM (inactive)	> 100 µM (inactive)
COc1cc(C)cc2c(-c3c(O)cc(O)c4c3C[C@H](C)N[C@H]4C)cc(-c3cc(-c4c(O)cc(O)c5c4C[C@H](C)N[C@H]5C)c4cc(C)cc(OC)c4c3O)c(O)c12	> 100 µM (inactive)	> 100 µM (inactive)	> 100 µM (inactive)	> 100 µM (inactive)	56.2 µM (inactive)	52 µM (inactive)	> 100 µM (inactive)	> 100 µM (inactive)	21.4 µM (inactive)	> 100 µM (inactive)	83.4 µM (inactive)	> 100 µM (inactive)	66.4 µM (inactive)	> 100 µM (inactive)	> 100 µM (inactive)	> 100 µM (inactive)	> 100 µM (inactive)	
COc1cc2c(cc1OC)C(=O)/C(=C/c1ccccc1)C2	> 100 µM (inactive)	> 100 µM (inactive)	27.5 µM (inactive)	> 70 µM (inactive)	60.8 µM (inactive)	> 93.8 µM (inactive)	47 µM (inactive)	> 100 µM (inactive)	> 100 µM (inactive)	> 58.9 µM (inactive)	19.1 µM (inactive)	73.3 µM (inactive)	76.9 µM (inactive)	> 100 µM (inactive)	> 100 µM (inactive)	29.4 µM (inactive)	> 100 µM (inactive)	
O=c1[nH]nc(-c2ccccc2)n1/N=C\CC/C=N\n1c(-c2ccccc2)n[nH]c1=O	19.2 µM (inactive)	49 µM (inactive)	> 10 µM (inactive)	25.5 µM (inactive)	34.8 µM (inactive)	20 µM (inactive)	> 94.2 µM (inactive)	20.7 µM (inactive)	60 µM (inactive)	28.1 µM (inactive)	25.3 µM (inactive)	26.1 µM (inactive)	47.3 µM (inactive)	20.2 µM (inactive)	28.6 µM (inactive)	34 µM (inactive)	> 100 µM (inactive)	
OB(O)c1ccccc1C#Cc1ccccc1B(O)O	12.2 µM (inactive)	3.09 µM (inactive)	20.1 µM (inactive)	23.3 µM (inactive)	13.9 µM (inactive)	21.2 µM (inactive)	14.6 µM (inactive)	17.1 µM (inactive)	27.4 µM (inactive)	22.1 µM (inactive)	20.6 µM (inactive)	11.5 µM (inactive)	22.9 µM (inactive)	11.5 µM (inactive)	24 µM (inactive)	19.5 µM (inactive)	17.1 µM (inactive)	
Cc1ccc(/C=C2\N=C(N3CCCCC3)NC2=O)cc1	> 100 µM (inactive)	> 100 µM (inactive)	> 100 µM (inactive)	> 100 µM (inactive)	> 100 µM (inactive)	> 100 µM (inactive)	74.5 µM (inactive)	> 100 µM (inactive)	> 100 µM (inactive)	> 100 µM (inactive)	60.8 µM (inactive)	98.6 µM (inactive)	> 100 µM (inactive)	> 100 µM (inactive)	> 100 µM (inactive)	> 100 µM (inactive)	> 100 µM (inactive)	
Oc1ccc2c3c1OC1c4[nH]ncc4C[C@H]4[C@@H](C2)N(CC2CC2)CC[C@]314 (some centres undefined)	> 100 µM (inactive)	> 100 µM (inactive)	> 100 µM (inactive)	> 100 µM (inactive)	> 100 µM (inactive)	> 100 µM (inactive)	> 100 µM (inactive)	> 100 µM (inactive)	> 100 µM (inactive)	> 100 µM (inactive)	> 100 µM (inactive)	> 100 µM (inactive)	> 100 µM (inactive)	> 100 µM (inactive)	> 100 µM (inactive)	> 100 µM (inactive)	> 100 µM (inactive)	
C=C[C@@]1(C)CCC2(O)C(CCC3C2(C)CCC[C@@]3(C)COC(=O)CC(=O)OC)C1 (some centres undefined)		> 100 µM (inactive)	32.7 µM (inactive)		18.1 µM (inactive)		16.3 µM (inactive)	17.3 µM (inactive)	20.1 µM (inactive)		19.8 µM (inactive)	22.5 µM (inactive)			> 100 µM (inactive)	22.2 µM (inactive)	18.7 µM (inactive)	18.7 µM (inactive)
